Measured values: PMC13070491, “Single-nucleus transcriptomics, pharmacokinetics, and pharmacodynamics of CDK4/6 and mTOR inhibition in a Phase 0/1 trial of recurrent high-grade glioma” (Neuro-Oncology, 2025)

Tested on: GB126, GB239 and GB86 patient-derived cell lines
Experiment: In vitro single-cell RNA sequencing, analyses across the cell lines (pseudobulk differential gene expression, GSEA, non-cycling cells)
Format: cell-based, human
Details: pseudobulk, ribociclib versus control (DMSO)
Protocol: Patient-derived glioma stem cell lines (GSCs; GB126, GB86, and GB239) were established from resected GBM tumor tissue. Cell lines were genetically profiled for mutations and copy number aberrations using the IvySeq custom gene panel. […] GB239 was derived from a tumor sample included in this Phase 0 trial (tumor sample: 100-0039). All human GSCs were cultured as described previously.[12]
Following the fifth day of drug exposure, cells were harvested, cryopreserved to be processed at a later point, or immediately processed for single-cell RNA sequencing (10x Genomics, 3’ version 3). The single-cell RNA sequencing data were then processed via cellranger count and Seurat. Briefly, cells were filtered out based on the following criteria: minimum number of genes detected >500 and <10 000 with a maximum percentage of mitochondrial genes set to 10%. Statistical assessment was made between the malignant proportions of each cell state using a 2-sided paired t-test.
Descriptive statistics of the clinical data are included in Table 1. Comparisons between groups were conducted using a 2-sided or paired 2-sided t-test, where indicated. P < .05 was considered significant. Multiple hypothesis test corrections (ie, false discovery rate correction) were applied for snRNAseq pseudobulk differential expression analysis.

CN(C)C(=O)c1cc2cnc(Nc3ccc(N4CCNCC4)cn3)nc2n1C1CCCC1 [ribo]
log2FoldChange ABCA6 (gene ABCA6): 1.5 | log2FoldChange ABCA8 (gene ABCA8): 1.548 | log2FoldChange AC002074.1 (gene AC002074.1): 1.866 | log2FoldChange AC002383.1 (gene AC002383.1): 1.53 | log2FoldChange AC004828.1 (gene AC004828.1): 1.459 | log2FoldChange AC005538.3 (gene AC005538.3): 2.148 | log2FoldChange AC007317.2 (gene AC007317.2): 2.061 | log2FoldChange AC009313.1 (gene AC009313.1): 1.78 | log2FoldChange AC009975.2 (gene AC009975.2): 1.436 | log2FoldChange AC010230.1 (gene AC010230.1): 1.7556 | log2FoldChange AC010551.3 (gene AC010551.3): 1.556 | log2FoldChange AC012038.2 (gene AC012038.2): 2.048 | log2FoldChange AC012405.1 (gene AC012405.1): 1.439 | log2FoldChange (gene AC012533.1): -1.092 | log2FoldChange AC012625.1 (gene AC012625.1): 1.675 | log2FoldChange AC013480.1 (gene AC013480.1): 1.662 | log2FoldChange AC020892.1 (gene AC020892.1): 1.613 | log2FoldChange AC023644.1 (gene AC023644.1): 1.813 | log2FoldChange (gene AC024884.2): -1.745 | log2FoldChange AC025263.1 (gene AC025263.1): 1.435 | log2FoldChange (gene AC026333.4): -1.805 | log2FoldChange AC026888.1 (gene AC026888.1): 1.994 | log2FoldChange AC027117.1 (gene AC027117.1): 1.702 | log2FoldChange AC055874.1 (gene AC055874.1): 1.6992 | log2FoldChange AC073611.1 (gene AC073611.1): 1.444 | log2FoldChange AC079117.1 (gene AC079117.1): 1.6417 | log2FoldChange AC090403.1 (gene AC090403.1): 1.628 | log2FoldChange AC091953.1 (gene AC091953.1): 1.742 | log2FoldChange AC092604.1 (gene AC092604.1): 1.65 | log2FoldChange AC092617.1 (gene AC092617.1): 2.048 | log2FoldChange AC092691.3 (gene AC092691.3): 1.975 | log2FoldChange AC096576.2 (gene AC096576.2): 1.586 | log2FoldChange AC096576.3 (gene AC096576.3): 1.66 | log2FoldChange AC097375.4 (gene AC097375.4): 1.562 | log2FoldChange (gene AC099850.3): -1.64 | log2FoldChange AC100835.2 (gene AC100835.2): 1.894 | log2FoldChange AC104078.2 (gene AC104078.2): 1.507 | log2FoldChange AC104574.1 (gene AC104574.1): 1.483 | log2FoldChange AC106874.1 (gene AC106874.1): 1.556 | log2FoldChange AC109129.1 (gene AC109129.1): 1.6709 | log2FoldChange AC110296.1 (gene AC110296.1): 1.762 | log2FoldChange AC114546.2 (gene AC114546.2): 1.559 | log2FoldChange AC114964.2 (gene AC114964.2): 1.675 | log2FoldChange (gene AC116914.1): -1.614 | log2FoldChange AC121154.1 (gene AC121154.1): 1.879 | log2FoldChange AC132153.1 (gene AC132153.1): 1.518 | log2FoldChange AC133530.1 (gene AC133530.1): 1.513 | log2FoldChange AC137579.1 (gene AC137579.1): 1.549 | log2FoldChange (gene AC138819.1): -1.883 | log2FoldChange ACSM5 (gene ACSM5): 2.672 | log2FoldChange (gene ACYP1): -1.092 | log2FoldChange ADAMTS4 (gene ADAMTS4): 1.636 | log2FoldChange ADCY5 (gene ADCY5): 1.503 | log2FoldChange ADGRA1-AS1 (gene ADGRA1-AS1): 1.641 | log2FoldChange ADH1A (gene ADH1A): 1.456 | log2FoldChange AL022324.3 (gene AL022324.3): 1.692 | log2FoldChange (gene AL031658.2): -1.667 | log2FoldChange AL132633.1 (gene AL132633.1): 1.623 | log2FoldChange (gene AL132655.3): -1.059 | log2FoldChange AL135934.1 (gene AL135934.1): 1.5674 | log2FoldChange (gene AL138789.1): -1.6906 | log2FoldChange AL158058.1 (gene AL158058.1): 2.1266 | log2FoldChange AL162385.1 (gene AL162385.1): 2.332 | log2FoldChange AL354813.1 (gene AL354813.1): 1.4344 | log2FoldChange AL355916.2 (gene AL355916.2): 1.536 | log2FoldChange (gene AL356094.2): -1.675 | log2FoldChange AL358394.1 (gene AL358394.1): 2.818 | log2FoldChange (gene AL390839.2): -1.735 | log2FoldChange AL391730.2 (gene AL391730.2): 1.804 | log2FoldChange AL445423.1 (gene AL445423.1): 1.473 | log2FoldChange AL591686.1 (gene AL591686.1): 1.912 | log2FoldChange (gene AL645608.7): -1.064 | log2FoldChange (gene ANP32E): -1.059 | log2FoldChange AP000569.1 (gene AP000569.1): 1.498 | log2FoldChange AP000857.2 (gene AP000857.2): 1.634 | log2FoldChange AP001825.1 (gene AP001825.1): 1.5203 | log2FoldChange AP002370.2 (gene AP002370.2): 1.537 | log2FoldChange AP002761.2 (gene AP002761.2): 1.672 | log2FoldChange (gene ARHGAP11A): -1.6744 | log2FoldChange ARHGAP26-IT1 (gene ARHGAP26-IT1): 2.344 | log2FoldChange (gene ARNTL2): -1.092 | log2FoldChange ASB9 (gene ASB9): 1.438 | log2FoldChange BAIAP3 (gene BAIAP3): 1.561 | log2FoldChange BBOX1 (gene BBOX1): 1.457 | log2FoldChange (gene BRIP1): -1.784 | log2FoldChange BST2 (gene BST2): 1.645 | log2FoldChange (gene BUB1): -1.8 | log2FoldChange (gene C1QTNF2): -1.812 | log2FoldChange C1orf147 (gene C1orf147): 1.503 | log2FoldChange C16orf89 (gene C16orf89): 1.4386 | log2FoldChange C20orf78 (gene C20orf78): 1.576 | log2FoldChange (gene C21orf58): -1.614 | log2FoldChange CALB2 (gene CALB2): 2.123 | log2FoldChange (gene CAMK2N2): -1.147 | log2FoldChange (gene CCDC74A): -1.6 | log2FoldChange (gene CCDC74B): -1.688 | log2FoldChange (gene CCNE2): -1.873 | log2FoldChange (gene CCNF): -1.863 | log2FoldChange (gene CDCA4): -1.7252 | log2FoldChange (gene CDKN3): -1.855 | log2FoldChange (gene CHAF1B): -1.654 | log2FoldChange CHGA (gene CHGA): 1.609 | log2FoldChange CHI3L1 (gene CHI3L1): 1.918 | log2FoldChange CHL1-AS1 (gene CHL1-AS1): 1.667 | log2FoldChange CHST4 (gene CHST4): 1.465 | log2FoldChange CLEC1A (gene CLEC1A): 1.693 | log2FoldChange (gene CRHR1): -1.091 | log2FoldChange CYP4Z1 (gene CYP4Z1): 1.554
